Entries after “also recorded” stand apart in the source; their conditions may differ. Read-outs that look alike come from different tables or passages of the source.
What was measured:
[1] = test system: A549 cells; assay type: cell-based
[2] = test system: A549 cells; assay type: cell-based; remark: listed apart in the source
[3] = test system: HeLa cells; assay type: cell-based
[4] = test system: MRCS cells; assay type: cell-based
[5] = test system: 293T cell, HUVEC cell, HCT-116 cell, MKN-45 cell, MRCS cell, U397 cell and ESF-1 cell; assay type: cell-based
[6] = test system: A549 cells; assay type: cell-based; remark: listed apart in the source
[7] = test system: A549 cells; assay type: cell-based; remark: listed apart in the source
[8] = test system: A549 cells; assay type: cell-based; remark: listed apart in the source
[9] = test system: 3′ UTR region of RELA gene; assay type: cell-based
[10] = test system: HEK293T cells; assay type: cell-based
[11] = test system: LPS-induced acute lung injury in mice; set-up: species or system C57 BL/6 male mice; details: mouse, in vivo
[12] = test system: A549 cells; assay type: cell-based; remark: listed apart in the source
[13] = test system: A549 cells; assay type: cell-based; remark: listed apart in the source
[14] = test system: A549 cells; assay type: cell-based; remark: listed apart in the source

In the case of “RLFFKCIYRRLKYGLKRG [Jilin-2004(H5N1)-M2-45-62]”, the “cell-penetrating peptide function (confocal imaging)” value [1] is reported as “all had cell-penetrating peptide functions”, the cell entry [2] is reported as “still had a significant cell entry effect; also recorded: entered A549 cells” and the “cell entry at lower concentrations” value [2] is reported as “could still enter A549 cells”. For the same sequence, the “cell entry effect compared with TAT positive control” value [2] was “stronger than that of the TAT polypeptide”, the “cell entry effect compared with existing cell-penetrating peptides (Table 4)” value [2] was “significantly better cell entry effects than existing cell-penetrating peptides” and the “cell entry of FITC-labeled polypeptide” value [2] was “could achieve significant A549 cell entry at all concentrations tested”. The cell-penetrating peptide effect [2] was “a good cell-penetrating peptide effect”, the “cell-penetrating peptide function compared with positive control TAT” value [2] was “stronger than that of the positive control TAT” and the “entry effect compared with FITC-labeled TAT (positive control)” value [2] was “much stronger than FITC-labeled TAT polypeptide”. The cell penetration properties [3] was “consistent with the results obtained using A549 cells”, the cell penetration properties [4] was “consistent with the results obtained using A549 cells” and the “entry effect compared with other fragments in different cell lines” value [5] was “even better entry effects”. For the same sequence, the “ability to carry small RNA compared with TAT at the same concentration” value [6] was “significantly stronger”, the “carrying FAM-labeled small RNA into cells” value [6] was “can all carry small RNA into cells” and the “ability to carry small RNA compared with TAT at the same concentration” value [7] was “significantly stronger”. For the same sequence, the “carrying Cy3-labeled small RNA into cells” value [7] was “can carry small RNA into cells”, the “ability to carry small RNA (PGY-sRNA-26) into cells, qPCR” value [8] was “had the ability to carry small RNA into the cells” and the “ability to carry small RNA into cells compared with the transfection reagent RNAiMax group, qPCR” value [8] was “stronger than the transfection reagent RNAiMax group”. For the same sequence, the “ability to carry small RNA into cells, qPCR” value [8] was “all had the ability to carry small RNA into cells”, the “ability to carry PGY-dsRNA-6 compared with positive control TAT” value [9] was “stronger than that of the positive control TAT” and the “carrying PGY-dsRNA-6 into cells and fulfilling its function (luciferase reporter)” value [9] was “could all carry PGY-dsRNA-6 into cells and fulfill its function”. For the same sequence, the “carrying NS1-GFP plasmid into cells and GFP expression” value [10] was “could carry NS1-GFP plasmid into HEK293 cells, and GFP protein was expressed in the nucleus”.
With GRKKRRQRRRPPQ [TAT, reference compound] the “cell entry of rhodamine-labeled polypeptide” value [1] was “could all enter A549 cells”, the cell entry [2] was “did not show cell entry” and the “cell entry after 5 min incubation” value [2] was “the entry into the cell was observed”. The “cell entry at 1 h” value [2] was “the effect was obvious”, the “ability to carry small RNA (PGY-sRNA-26) into cells, qPCR” value [8] was “very weak” and the “carrying NS1-GFP plasmid into cells and GFP expression” value [10] was “almost no expression of GFP fluorescent protein”. The “entry of miR1246 antagomir into lung tissue of mice” value [11] was “almost no effect”.
For “DRLFFKCIYRRLK [Jilin-2004(H5N1)-M2-44-56]”, the “cell-penetrating peptide function compared with positive control TAT” value [2] was “stronger than that of the positive control TAT”, the “ability to carry small RNA compared with TAT at the same concentration” value [6] was “significantly stronger” and the “carrying FAM-labeled small RNA into cells” value [6] was “can all carry small RNA into cells”. For the same sequence, the “carrying Cy3-labeled small RNA into cells” value [12] was “can carry small RNA into cells”, the “effect compared with transfection reagent RNAiMax” value [12] was “stronger than that of the transfection reagent RNAiMax” and the “ability to carry PGY-dsRNA-6 compared with positive control TAT” value [9] was “stronger than that of the positive control TAT”. For the same sequence, the “carrying PGY-dsRNA-6 into cells and fulfilling its function (luciferase reporter)” value [9] was “could all carry PGY-dsRNA-6 into cells and fulfill its function”, the “ability to carry proteins into the cell compared with TAT at the same concentration” value [13] was “significantly stronger” and the “carrying β-galactosidase protein into the cell” value [13] was “could carry β-galactosidase protein into the cell”. The “cell entry of polypeptide carrying GFP protein” value [14] was “observed” and the “effect of carrying GFP protein compared with positive control TAT” value [14] was “stronger than that of the positive control TAT”.
